Data taken from ChEMBL document CHEMBL3885881, “DrugMatrix”.

Species on record: Rattus norvegicus
Assay: DrugMatrix - Regimen: Daily Repeat
Type: toxicity, organism-based, Sprague-Dawley
Design: regimen Daily Repeat, gender Male, age 6-8 weeks
Details: in vivo, po, route oral GAVAGE, […]; for ABSOLUTE BASOPHIL / ABSOLUTE EOSINOPHIL / ABSOLUTE LYMPHOCYTE / ABSOLUTE MONOCYTE / ABSOLUTE SEGMENTED NEUTROPHIL / BASOPHIL / EOSINOPHIL / ERYTHROCYTE COUNT / HEMATOCRIT / HEMOGLOBIN / LEUKOCYTE COUNT / LYMPHOCYTE / MEAN CORPUSCULAR HEMOGLOBIN / MEAN CORPUSCULAR HEMOGLOBIN CONCENTRATION / MEAN CORPUSCULAR VOLUME / MONOCYTE / NEUTROPHIL / NUCLEATED RED BLOOD CELLS / PLATELET COUNT: tissue Blood; for ALANINE AMINOTRANSFERASE / ALBUMIN / ALKALINE PHOSPHATASE / ASPARTATE AMINOTRANSFERASE / BLOOD UREA NITROGEN / CARBON DIOXIDE / CHLORIDE / CHOLESTEROL / CREATINE PHOSPHOKINASE / CREATININE / GLUCOSE / LACTATE DEHYDROGENASE / LIPASE / PHOSPHORUS / POTASSIUM / SODIUM / TOTAL BILIRUBIN / TOTAL PROTEIN / URIC ACID: tissue Plasma
[1] = 50 mg/kg, 120 h, dose level Low, time 5 day
[2] = 714 mg/kg, 72 h, dose level High, time 3 day
[3] = 714 mg/kg, 120 h, dose level High, time 5 day

COC(=O)Nc1nc2ccc(C(=O)c3ccccc3)cc2[nH]1 [MEBENDAZOLE]
ABSOLUTE BASOPHIL [1]: 0 CELLS/uL | ABSOLUTE EOSINOPHIL [1]: 0 CELLS/uL | ABSOLUTE LYMPHOCYTE [1]: 6435.67 CELLS/uL | ABSOLUTE MONOCYTE [1]: 130 CELLS/uL | ABSOLUTE SEGMENTED NEUTROPHIL [1]: 501 CELLS/uL | BASOPHIL [1]: 0% | EOSINOPHIL [1]: 0% | ERYTHROCYTE COUNT [1]: 5.5 x10E6/uL | HEMATOCRIT [1]: 34.07% | HEMOGLOBIN [1]: 13.2 G/DL | LEUKOCYTE COUNT [1]: 7.07 x10E3/uL | LYMPHOCYTE [1]: 91.33% | MEAN CORPUSCULAR HEMOGLOBIN [1]: 23.93 pg | MEAN CORPUSCULAR HEMOGLOBIN CONCENTRATION [1]: 38.77 G/DL | MEAN CORPUSCULAR VOLUME [1]: 61.9 fL | MONOCYTE [1]: 1.67% | NEUTROPHIL [1]: 7% | NUCLEATED RED BLOOD CELLS [1]: 0 /100WBC | PLATELET COUNT [1]: 727.67 x10E3/uL | ALANINE AMINOTRANSFERASE [1]: 57.67 u/L | ALBUMIN [1]: 4.23 G/DL | ALKALINE PHOSPHATASE [1]: 399 u/L | ASPARTATE AMINOTRANSFERASE [1]: 84.33 u/L | BLOOD UREA NITROGEN [1]: 13 mg/dL | CARBON DIOXIDE [1]: 30.67 mmol/L | CHLORIDE [1]: 101.67 MEQ/L | CHOLESTEROL [1]: 64.67 mg/dL | CREATINE PHOSPHOKINASE [1]: 244 u/L | CREATININE [1]: 0.17 mg/dL | GLUCOSE [1]: 149 mg/dL | LACTATE DEHYDROGENASE [1]: 129.33 u/L | LIPASE [1]: 9.33 u/L | PHOSPHORUS [1]: 9.77 mg/dL | POTASSIUM [1]: 5.24 MEQ/L | SODIUM [1]: 144.5 MEQ/L | TOTAL BILIRUBIN [1]: 0.17 mg/dL | TOTAL PROTEIN [1]: 6.13 G/DL | URIC ACID [1]: 0.83 mg/dL | ABSOLUTE BASOPHIL [2]: 0 CELLS/uL | ABSOLUTE EOSINOPHIL [2]: 0 CELLS/uL | ABSOLUTE LYMPHOCYTE [2]: 11722 CELLS/uL | ABSOLUTE MONOCYTE [2]: 64.67 CELLS/uL | ABSOLUTE SEGMENTED NEUTROPHIL [2]: 713.33 CELLS/uL | BASOPHIL [2]: 0% | EOSINOPHIL [2]: 0% | ERYTHROCYTE COUNT [2]: 5.73 x10E6/uL | HEMATOCRIT [2]: 36.47% | HEMOGLOBIN [2]: 14.03 G/DL | LEUKOCYTE COUNT [2]: 12.5 x10E3/uL | LYMPHOCYTE [2]: 93% | MEAN CORPUSCULAR HEMOGLOBIN [2]: 24.53 pg | MEAN CORPUSCULAR HEMOGLOBIN CONCENTRATION [2]: 38.5 G/DL | MEAN CORPUSCULAR VOLUME [2]: 63.63 fL | MONOCYTE [2]: 0.67% | NEUTROPHIL [2]: 6.33% | NUCLEATED RED BLOOD CELLS [2]: 0 /100WBC | PLATELET COUNT [2]: 1226.67 x10E3/uL | ALANINE AMINOTRANSFERASE [2]: 73 u/L | ALBUMIN [2]: 4.17 G/DL | ALKALINE PHOSPHATASE [2]: 458.33 u/L | ASPARTATE AMINOTRANSFERASE [2]: 86.67 u/L | BLOOD UREA NITROGEN [2]: 12.33 mg/dL | CARBON DIOXIDE [2]: 34.33 mmol/L | CHLORIDE [2]: 99 MEQ/L | CHOLESTEROL [2]: 68 mg/dL | CREATINE PHOSPHOKINASE [2]: 464 u/L | CREATININE [2]: 0.15 mg/dL | GLUCOSE [2]: 137.67 mg/dL | LACTATE DEHYDROGENASE [2]: 159.67 u/L | LIPASE [2]: 10 u/L | PHOSPHORUS [2]: 11.13 mg/dL | POTASSIUM [2]: 6.13 MEQ/L | SODIUM [2]: 144.4 MEQ/L | TOTAL BILIRUBIN [2]: 0.2 mg/dL | TOTAL PROTEIN [2]: 6.07 G/DL | URIC ACID [2]: 0.6 mg/dL | ABSOLUTE BASOPHIL [3]: 0 CELLS/uL | ABSOLUTE EOSINOPHIL [3]: 0 CELLS/uL | ABSOLUTE LYMPHOCYTE [3]: 8770.67 CELLS/uL | ABSOLUTE MONOCYTE [3]: 141.33 CELLS/uL | ABSOLUTE SEGMENTED NEUTROPHIL [3]: 488 CELLS/uL | BASOPHIL [3]: 0% | EOSINOPHIL [3]: 0% | ERYTHROCYTE COUNT [3]: 5.57 x10E6/uL | HEMATOCRIT [3]: 35.9% | HEMOGLOBIN [3]: 13.67 G/DL | LEUKOCYTE COUNT [3]: 9.4 x10E3/uL | LYMPHOCYTE [3]: 93% | MEAN CORPUSCULAR HEMOGLOBIN [3]: 24.57 pg | MEAN CORPUSCULAR HEMOGLOBIN CONCENTRATION [3]: 38.1 G/DL | MEAN CORPUSCULAR VOLUME [3]: 64.5 fL | MONOCYTE [3]: 1.67% | NEUTROPHIL [3]: 5.33% | NUCLEATED RED BLOOD CELLS [3]: 0.33 /100WBC | PLATELET COUNT [3]: 1199 x10E3/uL | ALANINE AMINOTRANSFERASE [3]: 60.67 u/L | ALBUMIN [3]: 4.1 G/DL | ALKALINE PHOSPHATASE [3]: 481.33 u/L | ASPARTATE AMINOTRANSFERASE [3]: 90.67 u/L | BLOOD UREA NITROGEN [3]: 14 mg/dL | CARBON DIOXIDE [3]: 32.67 mmol/L | CHLORIDE [3]: 99.67 MEQ/L | CHOLESTEROL [3]: 65 mg/dL | CREATINE PHOSPHOKINASE [3]: 401 u/L | CREATININE [3]: 0.21 mg/dL | GLUCOSE [3]: 145.33 mg/dL | LACTATE DEHYDROGENASE [3]: 142.67 u/L | LIPASE [3]: 11.67 u/L | PHOSPHORUS [3]: 10.2 mg/dL | POTASSIUM [3]: 5.58 MEQ/L | SODIUM [3]: 146.1 MEQ/L | TOTAL BILIRUBIN [3]: 0.2 mg/dL | TOTAL PROTEIN [3]: 5.97 G/DL | URIC ACID [3]: 0.5 mg/dL
